Target: T1, oxidase-type xanthine oxidoreductase (from buttermilk) (Bos taurus, UniProt P80457)
T1 construct: purchased Calbiochem Novabiochem Corp; host or cells: buttermilk (natural source)
Assay: xanthine oxidase inhibitory activity (change of absorbance at 290 nm)
Format: biochemical
Settings: xanthine substrate, read-out: Inhibitor Activity
Method: Test compound was dissolved in DMSO (manufactured by Sigma Co.) to prepare a 20 mM solution. The solution was adjusted to an optimal concentration and used for the testing.
This evaluation was carried out by measuring oxidase-type xanthine oxidoreductase activity. Concretely, a xanthine (manufactured by Sigma Co.) solution was prepared at 10 mM using a 20 mM sodium hydroxide solution and then mixed with 100 mM phosphate buffer to adjusted to 30 μM. 75 μL of the solution was added to each well of the 96-well plate. The test compound diluted with DMSO at 100 times of a final concentration was added to each well at 1.5 μL per well. […] Immediately after mixing, the change of absorbance at 290 nm was measured for 5 minutes. The enzyme activity of DMSO solution without test compound was used as 100% control, and the inhibitory rate of the test compounds was calculated. Fifty percent inhibitory concentration of the test compounds on the oxidase-type xanthine oxidoreductase activity was calculated by fitting to the dose-response curve.

T1 sequence (P80457 whole entry): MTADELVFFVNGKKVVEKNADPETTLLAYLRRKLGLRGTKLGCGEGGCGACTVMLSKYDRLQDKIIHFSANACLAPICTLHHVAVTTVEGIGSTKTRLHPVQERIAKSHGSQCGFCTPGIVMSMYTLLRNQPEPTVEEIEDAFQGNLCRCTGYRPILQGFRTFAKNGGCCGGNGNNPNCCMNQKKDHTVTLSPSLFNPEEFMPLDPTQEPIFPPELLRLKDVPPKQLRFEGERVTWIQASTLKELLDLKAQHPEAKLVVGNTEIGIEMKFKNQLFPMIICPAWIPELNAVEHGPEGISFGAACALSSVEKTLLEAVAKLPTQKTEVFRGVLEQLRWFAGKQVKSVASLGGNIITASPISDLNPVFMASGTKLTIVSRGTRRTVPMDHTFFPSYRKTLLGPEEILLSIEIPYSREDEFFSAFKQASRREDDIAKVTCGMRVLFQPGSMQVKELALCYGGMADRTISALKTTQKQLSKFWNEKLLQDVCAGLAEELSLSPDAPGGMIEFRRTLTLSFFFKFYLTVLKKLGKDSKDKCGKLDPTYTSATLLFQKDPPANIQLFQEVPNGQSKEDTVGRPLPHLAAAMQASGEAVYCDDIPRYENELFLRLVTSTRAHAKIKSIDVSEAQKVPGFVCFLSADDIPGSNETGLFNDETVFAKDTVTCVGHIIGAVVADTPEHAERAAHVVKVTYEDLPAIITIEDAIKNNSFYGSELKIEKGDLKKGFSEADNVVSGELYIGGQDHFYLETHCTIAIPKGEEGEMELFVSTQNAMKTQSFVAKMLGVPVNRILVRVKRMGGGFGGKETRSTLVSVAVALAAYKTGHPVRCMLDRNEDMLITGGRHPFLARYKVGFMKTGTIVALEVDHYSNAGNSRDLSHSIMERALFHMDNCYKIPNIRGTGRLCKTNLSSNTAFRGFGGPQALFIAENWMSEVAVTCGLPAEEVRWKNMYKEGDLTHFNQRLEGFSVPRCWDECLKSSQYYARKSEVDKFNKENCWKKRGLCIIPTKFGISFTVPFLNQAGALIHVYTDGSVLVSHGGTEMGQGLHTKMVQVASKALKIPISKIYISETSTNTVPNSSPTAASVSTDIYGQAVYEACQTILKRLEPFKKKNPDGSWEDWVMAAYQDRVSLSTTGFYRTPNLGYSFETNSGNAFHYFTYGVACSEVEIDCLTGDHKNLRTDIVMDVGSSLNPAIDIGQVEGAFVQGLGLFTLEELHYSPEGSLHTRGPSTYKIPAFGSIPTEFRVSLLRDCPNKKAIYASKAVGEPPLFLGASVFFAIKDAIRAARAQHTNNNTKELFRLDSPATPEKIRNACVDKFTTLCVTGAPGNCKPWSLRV

| IC50 [nM] | Structure (SMILES) |
| --- | --- |
| > 10 | Cc1nc(-c2ccc(Oc3ccccc3)c(-n3ccnn3)c2)sc1C(=O)O [compound 22, 4-methyl-2-[4-phenoxy-3-(1H-1,2,3-triazol-1-yl)phenyl]-1,3-thiazole-5-carboxylic acid] |
| 1 to 5 | Cc1nc(-c2ccc(OCC(C)(C)C)c(-n3cnnn3)c2)sc1C(=O)O [compound 26, 2-[4-(2,2-dimethylpropoxy)-3-(1H-1,2,3,4-tetrazol-1-yl)phenyl]-4-methyl-1,3-thiazole-5-carboxylic acid] |
| 1 to 5 | Cc1nc(-c2ccc(OCC3CCC3)c(-n3cnnn3)c2)sc1C(=O)O [compound 27, 2-[4-(cyclobutylmethoxy)-3-(1H-1,2,3,4-tetrazol-1-yl)phenyl]-4-methyl-1,3-thiazole-5-carboxylic acid] |
| 1 to 5 | Cc1nc(-c2ccc(OC3CCCC3)c(-n3cnnn3)c2)sc1C(=O)O [compound 28, 2-[4-(cyclopentyloxy)-3-(1H-1,2,3,4-tetrazol-1-yl)phenyl]-4-methyl-1,3-thiazole-5-carboxylic acid] |
| 1 to 5 | CC(C)Oc1ccc(-c2ncc(C(=O)O)s2)cc1-n1cnnn1 [compound 31, 2-[4-(propan-2-yloxy)-3-(1H-1,2,3,4-tetrazol-1-yl)phenyl]-1,3 thiazole-5-carboxylic acid] |
| 1 to 5 | CC(C)COc1ccc(-c2ncc(C(=O)O)s2)cc1-n1cnnn1 [compound 32, 2-[4-(2-methylpropoxy)-3-(1H-1,2,3,4-tetrazol-1-yl)phenyl]-1,3 thiazole-5-carboxylic acid] |
| 1 to 5 | Cc1nc(-c2ccc(Oc3ccccc3F)c(-n3cnnn3)c2)sc1C(=O)O [compound 34, 2-[4-(2-fluorophenoxy)-3-(1H-1,2,3,4-tetrazol-1-yl)phenyl]-4-methyl-1,3-thiazole-5-carboxylic acid] |
| 1 to 5 | COc1ccccc1Oc1ccc(-c2nc(C)c(C(=O)O)s2)cc1-n1cnnn1 [compound 35, 2-[4-(2-methoxyphenoxy)-3-(1H-1,2,3,4-tetrazol-1-yl)phenyl]-4-methyl-1,3-thiazole-5-carboxylic acid] |
| 1 to 5 | Cc1nc(-c2ccc(Oc3c(F)cccc3F)c(-n3cnnn3)c2)sc1C(=O)O [compound 36, 2-[4-(2,6-difluorophenoxy)-3-(1H-1,2,3,4-tetrazol-1-yl)phenyl]-4-methyl-1,3-thiazole-5-carboxylic acid] |
| 1 to 5 | Cc1nc(-c2ccc(Oc3cccc(F)c3)c(-n3cnnn3)c2)sc1C(=O)O [compound 37, 2-[4-(3-fluorophenoxy)-3-(1H-1,2,3,4-tetrazol-1-yl)phenyl]-4-methyl-1,3-thiazole-5-carboxylic acid] |
| 1 to 5 | Cc1cccc(Oc2ccc(-c3nc(C)c(C(=O)O)s3)cc2-n2cnnn2)c1 [compound 38, 2-[4-(3-methylphenoxy)-3-(1H-1,2,3,4-tetrazol-1-yl)phenyl]-4-methyl-1,3-thiazole-5-carboxylic acid] |
| 1 to 5 | Cc1nc(-c2ccc(Oc3ccccc3Cl)c(-n3cnnn3)c2)sc1C(=O)O [compound 39, 2-[4-(2-chlorophenoxy)-3-(1H-1,2,3,4-tetrazol-1-yl)phenyl]-4-methyl-1,3-thiazole-5-carboxylic acid] |
| 1 to 5 | Cc1cc(Oc2ccc(-c3nc(C)c(C(=O)O)s3)cc2-n2cnnn2)ccc1F [compound 40, 2-[4-(4-fluoro-3-methylphenoxy)-3-(1H-1,2,3,4-tetrazol-1-yl)phenyl]-4-methyl-1,3-thiazole-5-carboxylic acid] |
| 1 to 5 | Cc1cc(F)ccc1Oc1ccc(-c2nc(C)c(C(=O)O)s2)cc1-n1cnnn1 [compound 41, 2-[4-(4-fluoro-2-methylphenoxy)-3-(1H-1,2,3,4-tetrazol-1-yl)phenyl]-4-methyl-1,3-thiazole-5-carboxylic acid] |
| 1 to 5 | Cc1nc(-c2ccc(Oc3ccc(F)cc3F)c(-n3cnnn3)c2)sc1C(=O)O [compound 42, 2-[4-(2,4-difluorophenoxy)-3-(1H-1,2,3,4-tetrazol-1-yl)phenyl]-4-methyl-1,3-thiazole-5-carboxylic acid] |
| 1 to 5 | COc1cccc(F)c1Oc1ccc(-c2nc(C)c(C(=O)O)s2)cc1-n1cnnn1 [compound 43, 2-[4-(2-fluoro-6-methoxyphenoxy)-3-(1H-1,2,3,4-tetrazol-1-yl)phenyl]-4-methyl-1,3-thiazole-5-carboxylic acid] |
| 1 to 5 | Cc1ccccc1Oc1ccc(-c2nc(C)c(C(=O)O)s2)cc1-n1cnnn1 [compound 44, 2-[4-(2-methylphenoxy)-3-(1H-1,2,3,4-tetrazol-1-yl)phenyl]-4-methyl-1,3-thiazole-5-carboxylic acid] |
| 1 to 5 | Cc1ccc(Oc2ccc(-c3nc(C)c(C(=O)O)s3)cc2-n2cnnn2)cc1 [compound 45, 2-[4-(4-methylphenoxy)-3-(1H-1,2,3,4-tetrazol-1-yl)phenyl]-4-methyl-1,3-thiazole-5-carboxylic acid] |
| 1 to 5 | Cc1cc(F)cc(Oc2ccc(-c3nc(C)c(C(=O)O)s3)cc2-n2cnnn2)c1 [compound 46, 2-[4-(3-fluoro-5-methylphenoxy)-3-(1H-1,2,3,4-tetrazol-1-yl)phenyl]-4-methyl-1,3-thiazole-5-carboxylic acid] |
| 1 to 5 | Cc1nc(-c2ccc(Oc3cc(F)ccc3F)c(-n3cnnn3)c2)sc1C(=O)O [compound 47, 2-[4-(2,5-difluorophenoxy)-3-(1H-1,2,3,4-tetrazol-1-yl)phenyl]-4-methyl-1,3-thiazole-5-carboxylic acid] |
| 1 to 5 | Cc1ccc(F)c(Oc2ccc(-c3nc(C)c(C(=O)O)s3)cc2-n2cnnn2)c1 [compound 48, 2-[4-(2-fluoro-5-methylphenoxy)-3-(1H-1,2,3,4-tetrazol-1-yl)phenyl]-4-methyl-1,3-thiazole-5-carboxylic acid] |
| 1 to 5 | Cc1nc(-c2ccc(SC(C)C)c(-n3cnnn3)c2)sc1C(=O)O [compound 50, 4-methyl-2-[4-(propan-2-ylsulfanyl)-3-(1H-1,2,3,4-tetrazol-1-yl)phenyl]-1,3-thiazole-5-carboxylic acid] |
| 1 to 5 | Cc1ccc(Sc2ccc(-c3nc(C)c(C(=O)O)s3)cc2-n2cnnn2)cc1 [compound 51, 4-methyl-2-{4-[(4-methylphenyl)sulfanyl]-3-(1H-1,2,3,4-tetrazol-1-yl)phenyl}-1,3-thiazole 5-carboxylic acid] |

Tested on: level of uric acid in the plasma
Assay: Hypouricemic effect (oxonic acid-induced hyperuricemic beagle dogs)
Format: in vivo
Settings: hyperuricemic beagle dog, oral, 10 mg/kg, 8 hours after administration
Method: Potassium oxonate (50 mg/kg) was subcutaneously administrated before and 4 hours after compound administration. After the blood was collected from the cephalic vein at 8 hours after administration, the plasma was separated. The level of uric acid in the plasma sample was measured by LC-MS/MS method and the percentage of hypouricemic effect was determined by the following expression: Percentage of hypouricemic effect (%)=(Level of uric acid of the control animal−Level of uric acid of the test compound-administered animal)×100/Level of uric acid of the control animal.

| Structure (SMILES) | hypouricemic effect |
| --- | --- |
| Cc1nc(-c2ccc(OCC(C)C)c(-n3cnnn3)c2)sc1C(=O)O [Compound No. 25, 4-methyl-2-[4-(2-methylpropoxy)-3-(1H-1,2,3,4-tetrazol-1-yl)phenyl]-1,3-thiazole-5-carboxylic acid] | showed a hypouricemic effect |

Source: patent US9388174B2, “Azole benzene derivative” (TEIJIN PHARMA LIMITED, priority 2013, dated 2016)
